# Experiments:
# Nematode eggs = experiment: Plant pathogenic nematode inhibition test by dipping: nematode egg hatch inhibition (NY/T 1154.5-2006); type: in vivo
# Method: A plant pathogenic nematode inhibition test is conducted by dipping with the compounds in Table 1; and by referring to NY/T 1154.5-2006 (Part 5: Dipping Test for Insecticide Ovicidal Activity), the nematode egg hatch inhibition activity of the compounds is tested, as shown in Table 2: […]
# Nematode J2 = experiment: Plant pathogenic nematode inhibition test by dipping: second-stage juveniles; type: in vivo
# Earthworm = Earthworm toxicity test (Test Guidelines on Environmental Safety Assessment for Chemical Pesticides); type: in vivo; details: cell adds 'low toxicity'
# Method: (§1) According to the earthworm and edaphon toxicity test procedures as prescribed in the Test Guidelines on Environmental Safety Assessment for Chemical Pesticides, earthworm and edaphon toxicity tests are conducted on compounds 1 to 60 from Table 1. The simulative usual dose of pesticide in the edaphon test is 40 ppm.
# Edaphon = Edaphon toxicity test (Test Guidelines on Environmental Safety Assessment for Chemical Pesticides); details: 15 d; 100 times of usual dose (simulative usual dose 40 ppm); cell adds 'low toxicity'
# Method: as §1
# [1] = Test object: nematode eggs, dipping
# [2] = Test object: nematode J2 (second-stage juveniles), dipping
Structure (SMILES),LC50 (Nematode eggs; in vivo) [µg/mL],LC50 (Nematode J2; in vivo) [µg/mL],Earthworm Toxicity LC50 (14 d) (Earthworm),Edaphon Toxicity (15 d) (Inhibition ratio when added amount is 100 times of usual dose) (Edaphon),LC50 (Nematode eggs; [1]) [µg/mL],LC50 (Nematode J2; [2]) [µg/mL]
O=C1CC(C(=O)OCCC(F)=C(F)F)C(c2cc(Cl)cc(Cl)c2Cl)O1 (stereo not shown) [Compound 12],12.30,13.35,">10, low toxicity mg/L","<50%, low toxicity",,
O=C1CC(C(=O)OCCC(F)=C(F)F)C(c2ccc(Br)cc2F)O1 (stereo not shown) [Compound 25],,,">10, low toxicity mg/L","<50%, low toxicity",13.91,15.74
Cc1ccc(C2OC(=O)CC2C(=O)OCCC=C(F)F)cc1 (stereo not shown) [Compound 3],,,">10, low toxicity mg/L","<50%, low toxicity",10.01,10.23
O=C1CC(C(=O)OCCC(F)=C(F)F)C(c2ccc(F)cc2)O1 (stereo not shown) [Compound 20],10.143,12.532,">10, low toxicity mg/L","<50%, low toxicity",,
O=C1CC(C(=O)OCCC(F)=C(F)F)C(c2ccc(C(F)(F)F)cc2F)O1 (stereo not shown) [Compound 32],12.14,13.23,">10, low toxicity mg/L","<50%, low toxicity",,
O=C1CC(C(=O)OCCC(F)=C(F)F)C(c2cc(F)cc(Cl)c2)O1 (stereo not shown) [Compound 24],,,">10, low toxicity mg/L","<50%, low toxicity",10.91,12.24
O=C1CC(C(=O)OCCC(F)=C(F)F)C(c2cccc(Oc3cccc(C(F)(F)F)c3)c2)O1 (stereo not shown) [Compound 52],10.12,13.28,">10, low toxicity mg/L","<50%, low toxicity",,
CCc1ccc(C2OC(=O)CC2C(=O)OCCC=C(F)F)cc1 (stereo not shown) [Compound 4],10.25,10.24,">10, low toxicity mg/L","<50%, low toxicity",,
O=C1CC(C(=O)OCCC(F)=C(F)F)C(c2cc(F)c(F)c(F)c2)O1 (stereo not shown) [Compound 30],9.73,10.96,">10, low toxicity mg/L","<50%, low toxicity",,
O=C1CC(C(=O)OCCC(F)=C(F)F)C(c2c(Cl)cccc2Cl)O1 (stereo not shown) [Compound 11],13.30,14.95,">10, low toxicity mg/L","<50%, low toxicity",,
O=C1CC(C(=O)OCCC(F)=C(F)F)C(c2c(F)cccc2C(F)(F)F)O1 (stereo not shown) [Compound 31],9.60,10.07,">10, low toxicity mg/L","<50%, low toxicity",,
O=C1CC(C(=O)OCCC(F)=C(F)F)C(c2cccc(Cl)c2)O1 (stereo not shown) [Compound 14],12.10,13.01,">10, low toxicity mg/L","<50%, low toxicity",,
O=C1CC(C(=O)OCCC(F)=C(F)F)C(c2ccc([N+](=O)[O-])cc2)O1 (stereo not shown) [Compound 58],10.07,12.18,">10, low toxicity mg/L","<50%, low toxicity",,
O=C1CC(C(=O)OCCC(F)=C(F)F)C(c2ccccc2Cl)O1 (stereo not shown) [Compound 7],,,">10, low toxicity mg/L","<50%, low toxicity",12.81,13.25
CCOc1ccccc1C1OC(=O)CC1C(=O)OCCC(F)=C(F)F (stereo not shown) [Compound 43],11.98,13.35,">10, low toxicity mg/L","<50%, low toxicity",,
O=C1CC(C(=O)OCCC(F)=C(F)F)C(c2ccccc2F)O1 (stereo not shown) [Compound 19],15.21,17.24,">10, low toxicity mg/L","<50%, low toxicity",,
COc1ccc(C2OC(=O)CC2C(=O)OCCC(F)=C(F)F)cc1 (stereo not shown) [Compound 39],11.85,13.40,">10, low toxicity mg/L","<50%, low toxicity",,
Nc1ccc(C2OC(=O)CC2C(=O)OCCC(F)=C(F)F)cc1 (stereo not shown) [Compound 60],8.40,10.06,">10, low toxicity mg/L","<50%, low toxicity",,
COc1ccccc1C1OC(=O)CC1C(=O)OCCC(F)=C(F)F (stereo not shown) [Compound 35],10.84,11.67,">10, low toxicity mg/L","<50%, low toxicity",,
Cc1ccccc1C1OC(=O)CC1C(=O)OCCC=C(F)F (stereo not shown) [Compound 2],9.81,10.14,">10, low toxicity mg/L","<50%, low toxicity",,
O=C1CC(C(=O)OCCC(F)=C(F)F)C(c2ccccc2OC(F)(F)F)O1 (stereo not shown) [Compound 41],11.41,13.86,">10, low toxicity mg/L","<50%, low toxicity",,
COc1c(F)cc(C2OC(=O)CC2C(=O)OCCC(F)=C(F)F)cc1F (stereo not shown) [Compound 33],12.08,13.37,">10, low toxicity mg/L","<50%, low toxicity",,

# Reference: patent US10111428B2, “Nematocide containing lactonic ring and preparation method and application thereof” (priority 2015, dated 2018)
